Test results: patent US20060069132A1, “Azolecarboxamide herbicides” (priority 2004, published 2006)

Key:
barnyardgrass [1] = assay: Test A pre-/postemergence herbicide test; assay type: in vivo, Echinochloa crus-galli; settings: for Plant response rating, Barnyardgrass: Postemergence; for Barnyardgrass plant response rating: Preemergence
How it was run: (§1)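 Seeds sown in sandy loam received a preemergence directed soil spray of compound in non-phytotoxic solvent with surfactant; postemergence plants (2–10 cm, one- to two-leaf stage) were sprayed to runoff at the same time. After ~10 days in greenhouse, injury was rated visually versus untreated controls (0 = no effect, 100 = complete control).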

johnsongrass = assay: Test C pre-/postemergence herbicide test; assay type: in vivo, Sorghum halepense; settings: for Plant response rating, Johnsongrass / Plant response rating (0 = no effect, 100 = complete control), Johnsongrass: preemergence; for Plant response rating (0 = no effect, 100 = complete control), Johnsongrass: 62 g ai/ha
How it was run: (§2)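 Seeds were planted and sprayed preemergence with test chemicals in a non-phytotoxic solvent mixture containing surfactant; postemergence treatments went onto plants 2 to 18 cm tall (1- to 4-leaf stage). After 12 to 14 days in a greenhouse, injury was rated visually against untreated controls on a 0–100 scale.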

Surinam grass = assay: Test C pre-/postemergence herbicide test; assay type: in vivo, Urochloa decumbens; settings: for Plant response rating, Surinam Grass / Plant response rating (0 = no effect, 100 = complete control), Surinam Grass: preemergence; for Plant response rating (0 = no effect, 100 = complete control), Surinam Grass: 62 g ai/ha
How it was run: as §2

woolly cupgrass = assay: Test C pre-/postemergence herbicide test; assay type: in vivo, Eriochloa villosa; settings: for Plant response rating, Cupgrass, Woolly / Plant response rating (0 = no effect, 100 = complete control), Cupgrass, Woolly: preemergence; for Plant response rating (0 = no effect, 100 = complete control), Cupgrass, Woolly: 62 g ai/ha
How it was run: as §2

bermudagrass = assay: Test C pre-/postemergence herbicide test; assay type: in vivo, Cynodon dactylon; settings: for Plant response rating, Bermudagrass / Plant response rating (0 = no effect, 100 = complete control), Bermudagrass: preemergence; for Plant response rating (0 = no effect, 100 = complete control), Bermudagrass: 62 g ai/ha
How it was run: as §2

large crabgrass = assay: Test A pre-/postemergence herbicide test; assay type: in vivo, Digitaria sanguinalis; settings: for Plant response rating, Crabgrass, Large: Postemergence; for Crabgrass, Large plant response rating: Preemergence
How it was run: as §1

barnyardgrass [2] = assay: Test C flooded paddy test; assay type: in vivo, Echinochloa crus-galli; settings: for Plant response rating, Barnyardgrass: 500 g ai/ha, visual rating after 12 to 14 days
How it was run: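 Postemergence sprays applied to plants 2 to 18 cm tall (1- to 4-leaf stage); paddy species grown to 2-leaf stage under flooding. After 12 to 14 days in greenhouse, visual rating versus untreated controls on 0–100 scale (0 no effect, 100 complete control).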

redroot pigweed = assay: Test A pre-/postemergence herbicide test; assay type: in vivo, Amaranthus retroflexus; settings: for Plant response rating, Pigweed: Postemergence; for Pigweed plant response rating: Preemergence
How it was run: as §1

giant foxtail = assay: Test A pre-/postemergence herbicide test; assay type: in vivo, Setaria faberi; settings: for Plant response rating, Foxtail, Giant: Postemergence; for Foxtail, Giant plant response rating: Preemergence
How it was run: as §1

morningglory = assay: Test C pre-/postemergence herbicide test; assay type: in vivo, Ipomoea coccinea; design: key to Plant response rating, Morningglory: 0 = no effect, 100 = complete control; settings: for Plant response rating, Morningglory: visual, 12 to 14 days
How it was run: as §2

[3] = 500 g ai/ha, 0 to 100 scale, 0 no effect, 100 complete control
[4] = 2000 g ai/ha, 0 to 100 scale, 0 no effect, 100 complete control
[5] = 500 g ai/ha, visual rating, 0 to 100 scale (0 no effect, 100 complete control)
[6] = 125 g ai/ha, scale 0 (no effect) to 100 (complete control), visual, 12 to 14 days
[7] = 250 g ai/ha, scale 0 to 100 (0 no effect, 100 complete control), visual, 12 to 14 days
[8] = 62 g ai/ha, scale 0 to 100 (0 no effect, 100 complete control)
[9] = 125 g ai/ha, scale of 0 to 100, 0 is no effect, 100 is complete control
[10] = 250 g ai/ha, scale of 0 to 100, 0 is no effect, 100 is complete control
[11] = scale 0 to 100 (0 no effect, 100 complete control)
[12] = 125 g ai/ha, scale 0 (no effect) to 100 (complete control), preemergence
[13] = 250 g ai/ha, scale 0 to 100 (0 no effect, 100 complete control), preemergence
[14] = Preemergence, 500 g ai/ha, scale 0 to 100, 0 no effect, 100 complete control

| SMILES | Plant response rating, Barnyardgrass (barnyardgrass [1]; [3]) | Plant response rating, Barnyardgrass (barnyardgrass [1]; [4]) | Barnyardgrass plant response rating (barnyardgrass [1]; [5]) | Barnyardgrass plant response rating (barnyardgrass [1]; [4]) | Plant response rating (0 = no effect, 100 = complete control), Johnsongrass (johnsongrass) | Plant response rating, Johnsongrass (johnsongrass; [6]) | Plant response rating, Johnsongrass (johnsongrass; [7]) | Plant response rating (0 = no effect, 100 = complete control), Surinam Grass (Surinam grass) | Plant response rating, Surinam Grass (Surinam grass; [6]) | Plant response rating, Surinam Grass (Surinam grass; [7]) | Plant response rating (0 = no effect, 100 = complete control), Cupgrass, Woolly (woolly cupgrass) | Plant response rating, Cupgrass, Woolly (woolly cupgrass; [6]) | Plant response rating, Cupgrass, Woolly (woolly cupgrass; [7]) | Plant response rating (0 = no effect, 100 = complete control), Bermudagrass (bermudagrass) | Plant response rating, Bermudagrass (bermudagrass; [6]) | Plant response rating, Bermudagrass (bermudagrass; [7]) | Plant response rating, Crabgrass, Large (large crabgrass; [3]) | Plant response rating, Crabgrass, Large (large crabgrass; [4]) | Crabgrass, Large plant response rating (large crabgrass; [5]) | Crabgrass, Large plant response rating (large crabgrass; [4]) | further results |
| --- | --- | --- | --- | --- | --- | --- | --- | --- | --- | --- | --- | --- | --- | --- | --- | --- | --- | --- | --- | --- | --- |
| CCn1nc(C(C)(C)C)cc1C(=O)Nc1cccc(C(=O)NCC2CC2)c1 [Compound 62] | 65 | 100 | 50 | 95 | 40 | 40 | 70 | 5 | 10 | 50 | 0 | 0 | 20 | 10 | 90 | 95 | 25 | 60 | 70 | 85 | Plant response rating, Johnsongrass (johnsongrass; 31 g ai/ha, scale 0 to 100): 0; Plant response rating, Surinam Grass (Surinam grass; 31 g ai/ha, scale 0 to 100): 0; Plant response rating, Cupgrass, Woolly (woolly cupgrass; 31 g ai/ha, scale 0 to 100): 0; Plant response rating, Bermudagrass (bermudagrass; 31 g ai/ha, scale 0 to 100): 0; Barnyardgrass plant response rating (barnyardgrass [2]; [8]): 5; Barnyardgrass plant response rating (barnyardgrass [2]; [9]): 10; Barnyardgrass plant response rating (barnyardgrass [2]; [10]): 30; Plant response rating, Barnyardgrass (barnyardgrass [2]; [11]): 55; Plant response rating, Pigweed (redroot pigweed; [3]): 100; Plant response rating, Pigweed (redroot pigweed; [4]): 100; Pigweed plant response rating (redroot pigweed; [5]): 100; Pigweed plant response rating (redroot pigweed; [4]): 100; Plant response rating, Foxtail, Giant (giant foxtail; [3]): 55; Plant response rating, Foxtail, Giant (giant foxtail; [4]): 85; Foxtail, Giant plant response rating (giant foxtail; [5]): 75; Foxtail, Giant plant response rating (giant foxtail; [4]): 100; Plant response rating, Morningglory (morningglory; [12]): 0; Plant response rating, Morningglory (morningglory; [13]): 10 |
| CCN1CCc2c(NC(=O)c3cc(C(C)(C)C)nn3CC)cccc2C1=O [Compound 63] | 60 | 90 | 70 | 100 | 30 | 60 | 75 | 0 | 5 | 45 | 0 | 0 | 0 | 50 | 90 | 90 | 40 | 80 | 90 | 100 | Johnsongrass plant response rating (johnsongrass; [14]): 100; Surinam Grass plant response rating (Surinam grass; [14]): 60; Cupgrass, Woolly plant response rating (woolly cupgrass; [14]): 5; Bermudagrass plant response rating (bermudagrass; [14]): 100; Barnyardgrass plant response rating (barnyardgrass [2]; [8]): 0; Barnyardgrass plant response rating (barnyardgrass [2]; [9]): 0; Barnyardgrass plant response rating (barnyardgrass [2]; [10]): 20; Plant response rating, Barnyardgrass (barnyardgrass [2]; [11]): 50; Plant response rating, Pigweed (redroot pigweed; [3]): 95; Plant response rating, Pigweed (redroot pigweed; [4]): 100; Pigweed plant response rating (redroot pigweed; [5]): 100; Pigweed plant response rating (redroot pigweed; [4]): 100; Plant response rating, Foxtail, Giant (giant foxtail; [3]): 50; Plant response rating, Foxtail, Giant (giant foxtail; [4]): 80; Foxtail, Giant plant response rating (giant foxtail; [5]): 95; Foxtail, Giant plant response rating (giant foxtail; [4]): 100; Plant response rating (0 = no effect, 100 = complete control), Morningglory (morningglory; 62 g ai/ha, preemergence): 0; Plant response rating, Morningglory (morningglory; [12]): 40; Plant response rating, Morningglory (morningglory; [13]): 40; Morningglory plant response rating (morningglory; [14]): 40 |
